Columns and labels:
[1] = system: panel of cancer and normal cells; assay: Quantification of autophagy GFP-LC3 puncta in cell panel; assay type: cell-based; details: fluorescent microscopy
Description: (§1) GFP-LC3 puncta formation was quantified as previously described^15. In brief, cells grown on coverslips in a 6-well plate were treated with or without 10 μM of N-desmethyldauricine for 4 hours, the cells were then fixed in 4% paraformaldehyde for 20 minutes at room temperature and then rinsed with PBS. Slides were mounted with FluorSave™ mounting media (Calbiochem, San Diego, Calif.) and examined by fluorescence microscopy. The number of GFP-positive cells with GFP-LC3 puncta formation was examined under the Nikon ECLIPSE 80i microscope. Representative images were captured with CCD digital camera Spot RT3™ (Diagnostic Instruments, Inc., Melville, N.Y.). To quantify for autophagy, the percentage of cells with punctate GFP-LC3 fluorescence was calculated by counting the number of the cells with punctate GFP-LC3 fluorescence in GFP-positive cells. A minimum of 150 cells from 3 randomly selected fields was scored.

[2] = system: LC3; assay: Western blot of autophagic marker LC3 conversion and autophagic flux; assay type: cell-based, human; details: HeLa
Description: (§2) After N-desmethyldauricine treatments, HeLa cancer cells were harvested and lysed in RIPA buffer (Cell Signaling Technologies Inc. (Beverly, Mass.). The cell lysates were then resolved by SDS-PAGE. After electrophoresis, the proteins from SDS-PAGE were transferred to nitrocellulose membrane which was then blocked with 5% non-fat dried milk for 60 minutes. The membrane was then incubated with LC3 primary antibodies (1:1000) in TBST overnight at 4° C. After that, the membrane was further incubated with HRP-conjugated secondary antibodies for 60 minutes. Finally, protein bands were visualized by using the ECL Western Blotting Detection Reagents (Invitrogen, Paisley, Scotland, UK).
as §2, with “treatments in the presence or absence of lysosomal inhibitor 10·M of E64d/Pepstatin A,” for “treatments,”, “Inc., Beverly,” for “Inc. (Beverly,”, “Finally, protein bands were visualized by using the ECL Western Blotting Detection Reagents (Invitrogen, Paisley, Scotland, UK).” left out

[3] = system: wild type Atg7 cells (Atg7+/+) mouse embryonic fibroblasts; assay: GFP-LC3 puncta in Atg7 wild-type MEFs; assay type: cell-based
Description: as §1, with “brief, both Atg7 wild-type and deficient mouse embryonic fibroblasts (MEFs)” for “brief, cells”, “with indicated concentrations” for “with or without 10 μM”, “of N-desmethyldauricine. Both Atg7 wild-type and deficient mouse embryonic fibroblasts” for “of N-desmethyldauricine for 4 hours, the cells”

[4] = system: HeLa cells; assay: RT2 Profiler autophagy PCR array; assay type: cell-based, human
From the text: For PCR array analysis, N-desmethyldauricine treated HeLa cells were used to obtain the total RNA by Qiagen RNeasy® Mini Kit (Qiagen). The autophagy pathway specific RT-PCR array was used to evaluate the potential alterations of related genes after N-desmethyldauricine treatments in HeLa cells. The autophagy array comprised 87 genes selected based on their involvement in regulating autophagy induction. There were 5 housekeeping genes served as positive controls. Total RNA was reverse transcripted using the RT2 First Strand Kit. Real-time PCR reactions were carried out on ABI 7500 (Applied Biosystems) using the RT2 SYBR® Green qPCR Mastermix (Qiagen) according to manufacturer's instructions. Data analysis was performed using the Qiagen's integrated web-based software package for the PCR Array System, which automatically performs all ΔΔCt based fold-change calculations from raw threshold cycle data.

[5] = system: HeLa cells; assay: Calcium detection by flow cytometry (Fluo-3); assay type: cell-based, human; details: 5 μM/10 μM, 1 h, 2 h, 4 h
Description: Changes in intracellular free calcium were measured by a fluorescent dye, Fluo-3, as described previously^18. Briefly, HeLa cells were washed twice with MEM medium after N-desmethyldauricine (LP-4) treatment (5 μM/10 μM) for various times (1 h, 2 h, 4 h). Then cell suspensions were incubated with 5 μM Fluo-3 at 37° C. for 30 min. Then the cells were washed twice with HBSS. After re-suspended cell samples were subjected to FACS analysis, at least 10,000 events were analyzed.

[6] = system: autophagy deficient cells (Atg7−/−); assay: Annexin V flow cytometry cell death, Atg7 deficient MEFs; assay type: cell-based, mouse; details: 10 μM, 24 h
Description: Cell viability was measured using an annexin V staining kit (BD Biosciences, San Jose, Calif., USA). Briefly, Atg7 wild-type (Atg7^+/+ or Atg7-wt) and Atg7 deficient (Atg7^−/− or Atg7-ko) mouse embryonic fibroblasts (MEFs) were treated with the 10 μM N-desmethyldauricine for 24 h. Cells were then harvested and analysed by multiparametric flow cytometry using FITC-Annexin V and Propidium iodide staining (BD Biosciences, San Jose, Calif., USA) according to the manufacturer's instructions. Flow cytometry was then carried out using a FACSCalibur flow cytometer (BD Biosciences, San Jose, Calif., USA). Data acquisition and analysis was performed with CellQuest (BD Biosciences, San Jose, Calif., USA). Data were obtained from three independent experiments.

[7] = system: mutant huntingtin overexpressed PC 12 cells; assay: Viability of mutant huntingtin overexpressed PC 12 cells; assay type: cell-based; details: PC 12, 7.5 μM
Description: For cell viability assay measured by crystal violet staining, PC-12 cells were incubated in 35 mm disc followed by the addition of N-desmethyldauricine at 7.5 μM for 24 hours. The cells were then incubated with crystal violet for 10 minutes followed by a ddH2O wash. The stained cells image was captured by CCD digital camera Spot RT3™ under the Nikon ECLIPSE 80i microscope with 4× magnification. Cell viability was quantified by dissolving stained cells in 10% acetic acid (200 μL/well). The colorimetric reading of the solute mixture was then determined by spectrophotometer at OD 560 nm. The percentage of cell viability was calculated using the following formula: Cell viability (%)=Cells numbertreated/Cells numberDMSO control×100. Data was obtained from three independent experiments.
PC 12 cells were transfected transiently with EGFP-HDQ23/55/74 (Q23, Q55, Q74) plasmids for 24 hours using Lipofectamine Plus LTX reagent (Invitrogen) according to the manufacturer's protocol. The transfected cells were then treated with N-desmethyldauricine for 24 hours. The removal of mutant huntingtin, (Q23, Q55, Q74) were then quantitated by immunoblotting with antibody against EGFP.

Q: Which results are given for COc1cc2c(cc1OC)[C@@H](Cc1ccc(Oc3cc(C[C@H]4NCCc5cc(OC)c(OC)cc54)ccc3O)cc1)N(C)CC2 [N-desmethyldauricine]?
A: GFP-LC3 puncta formation [1]: increased; autophagic marker LC3-II conversion ([2]; western blot): induced; LC3-II conversion in the presence of lysosomal inhibitor ([2]; with E64d/Pepstatin A): further enhance; GFP-LC3 puncta formation [3]: induce GFP-LC3 puncta formation; gene regulation during autophagy induction [4]: regulation of a panel of genes, i.e. Igf1, Fam176a, Ulk1, PERK, Cxcr4 and p62; cytosolic calcium level [5]: increase; cell death [6]: not; cell viability of mutant huntingtin overexpressed PC 12 cells [7]: enhance the cell viability; huntingtin aggregates-mediated cytotoxicity [7]: reduce

Source: patent US20150133492A1, “N-desmethyldauricine, A Novel Autophagic Enhancer for Treatment of Cancers and Neurodegenerative Conditions Thereof” (Macau University of Science and Technology, priority 2013, published 2015)
